According to publication PMC6895180 (Nature Communications, 2019):
Values joined by “and” are separate entries in the source; they are usually repeats but may differ in a detail not shown here. Identical values can stand only once. Like-named read-outs stand apart in the source and are kept apart here. Marks after values point to notes of the source that are not given here.

Assays:
[1] = tested on: T. b. rhodesiense STIB-900; assay: microbe, parasite or virus in culture; format: cell-based, Trypanosoma brucei rhodesiense; details: for SI (MRC/T.b. rhodesiense): selectivity index
[2] = Cytotoxicity on MRC-5 fibroblasts (resazurin); format: cell-based, human; details: human
Procedure, shortened: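 MRC-5SV2 cells (3 × 10^4 cells mL^−1) in MEM with 5% foetal calf serum exposed to compounds for 3 days at 37 °C, 5% CO2. Viability read by resazurin fluorescence (10 µg mL^−1 final, 4 h; λex 550/λem 590 nm) against untreated and medium controls; EC50 derived.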

[3] = tested on: T. b. brucei Lister 427WT; assay: Drug susceptibility test (resazurin), Lister 427WT; format: cell-based, Trypanosoma brucei brucei
Procedure, shortened: (§1)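 Trypanosomes (2 × 10^4 cells/well) exposed 48 h at 37 °C/5% CO2 in HMI-9/FBS to 23-step doubling dilutions from 100 µM, then resazurin added for a further 24 h. Fluorescence fitted to a variable-slope sigmoid curve.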

[4] = tested on: ISMR1: isometamidium-resistant T. brucei cell line; assay: microbe, parasite or virus in culture; format: cell-based, Trypanosoma brucei brucei; details: for RF (ISMR1): resistance factor vs Lister 427WT
Procedure, shortened: as §1

[5] = tested on: TbAT1-KO: T. brucei cell line lacking the TbAT1(P2) transporter gene; assay: microbe, parasite or virus in culture; format: cell-based, Trypanosoma brucei brucei; details: for RF (TbAT1-KO): resistance factor: ratio of EC50 of resistant and Lister 427WT
Procedure, shortened: as §1

[6] = tested on: T. brucei s427 wildtype cells; assay: Microscopy of trypanosome cell morphology (DAPI); format: cell-based, Trypanosoma brucei; details: 2× and 5× EC50; 6 h and especially 12 h
Protocol: Growth assays of T. brucei
To test the effect of the novel adenosine analogues on the growth of T. brucei BSF, s427 wildtype cells were seeded at 1×10^5 cells mL-1 in 5 mL of HMI-9 medium with 10% FBS and treated with compounds […]
cells were also incubated in drug-free medium under the same conditions. 2 μM of 2’-deoxycoformycin were added to all cultures to avoid any potential effect of serum adenosine deaminase on the activity of test compounds and cordycepin.1
Cells were manually counted in Neubauer chambers at 0, 2, 4, 6, 8, 12, 24, 36 and 48 h after addition of the drugs. At 6 and 12 h, cells were also collected and fixed to have their structure checked by […]
Wash-out experiments with T. brucei
A culture of bloodstream form T. brucei 427WT, at mid-log phase of growth, was harvested and resuspended at a density of 10^5 cells mL-1, in fresh medium containing either no test compound, or […]
The cultures were incubated under standard conditions (37 °C/5% CO2) and cell counts were performed manually using a haemocytometer under phase contrast microscopy, every 24 h. The culture in continuous presence of analogue 9 was split in two at 8 h and 48 h (as indicated with arrows in Supplementary Figure S2). The split cultures were centrifuged and resuspended in the same volume of either fresh medium without test compound or fresh medium with the same concentration of compound 9 as before, reincubated. The detection limit for the manual cell count was 10^4 cells mL-1.
After 6 and 12 h after addition of drugs, approximately 2×10^6 cells were harvested from each group and applied to glass slides pre-treated with poly-L-lysine, left to settle for 5 min and fixed with 4% formaldehyde for 4 min. The formaldehyde was neutralised by addition of 100 mM glycine (20 min).
Cells were washed once with PBS and blocked for 1 h with 1% BSA/0.2% Tween-20 in PBS. Cells were […]
A coverslip was then placed on top of the wells and sealed with nail varnish.
Metabolic stability of nucleoside analogue 9 […]
and B (Corning) were kept at -20°C. The test compound and the reference compounds diclofenac (MW […]

[7] = Trypanosoma brucei, RHODESIENSE, Alamar blue cell viability assay, mean and SEM, read-out: T. b. rhodesiense EC50
[8] = Trypanosoma brucei, RHODESIENSE, source data, read-out: T. brucei rhodesiense EC50, Average
[9] = source data, read-out: T. brucei rhodesiense EC50, single measurements
[10] = MRC-5SV2 human embryonic lung fibroblasts, cytotoxicity in human MRC-5 fibroblasts, mean and SEM, read-out: MRC-5 EC50
[11] = Trypanosoma brucei, mean and SEM, n = 3, read-out: Lister 427 EC50
[12] = Trypanosoma brucei, source data, read-out: s427 EC50, AVG
[13] = Trypanosoma brucei, mean and SEM, n = 3, read-out: ISMR1 EC50
[14] = Trypanosoma brucei, source data, read-out: ISMR1 EC50, AVG
[15] = Trypanosoma brucei, read-out: TbAT1-KO EC50, AVG, source data
[16] = Trypanosoma brucei, read-out: TbAT1-KO EC50, mean and SEM, n = 3
[17] = read-out: TbAT1-KO EC50, single determinations, source data
[18] = Trypanosoma brucei, RHODESIENSE, source data, read-out: T. brucei rhodesiense EC50, single measurements
[19] = Trypanosoma brucei, source data, read-out: s427 EC50, single determinations
[20] = source data, read-out: s427 EC50, single determinations
[21] = Trypanosoma brucei, source data, read-out: ISMR1 EC50, single determinations
[22] = source data, read-out: ISMR1 EC50, single determinations
[23] = Trypanosoma brucei, read-out: TbAT1-KO EC50, single determinations, source data

SMILES	EC50 [1, 7] [nM]	EC50 [1, 8] [nM]	SI (MRC/T.b. rhodesiense) [1]	EC50 [1, 9] [nM]	EC50 at 3 day [2, 10] [nM]	EC50 [3, 11] [nM]	EC50 [3, 12] [nM]	EC50 [4, 13] [nM]	EC50 [4, 14] [nM]	RF (ISMR1) [4]	EC50 [5, 15] [nM]	EC50 [5, 16] [nM]	EC50 [5, 17]	RF (TbAT1-KO) [5]	cell morphology [6]	EC50 [1, 18] [nM]	EC50 [3, 19] [nM]	EC50 [3, 20]	EC50 [4, 21] [nM]	EC50 [4, 22]	also measured
Nc1ncnc2c1c(Br)cn2[C@@H]1O[C@H](CO)C[C@H]1O [Compound 10, 3’-deoxy-7-Br-tubercidin]	0.4 ± 0.09	0.398	37,500	0.5	15000 ± 3000	1.8 ± 0.3	1.76	1.1 ± 0.2	1.11	0.63	2.12	2.1 ± 0.25	1.94 nM	1.2	clear aberrant morphology	–	–	–	–	–	–
Nc1ncnc2c1ccn2[C@@H]1O[C@H](CO)C[C@H]1O [Compound 9, 3’-deoxytubercidin]	0.52 ± 0.04	0.521	>123,077	0.557	> 64000	33 ± 1	33.3	32.4 ± 3.8	–	0.97	374	375 ± 12	397 nM and 357 nM	–	clear aberrant morphology	0.484	32	35.5 nM and 32.4 nM	39.2	32 nM and 26 nM	EC50 at 3 day ([2]; MRC-5SV2 human embryonic lung fibroblasts, source data, read-out: MRC-5 EC50, single measurements): > 64000 nM; EC50 [5, 23]: 370 nM
Nc1ncnc2c1c(Br)cn2[C@@H]1O[C@H](CO)[C@@H](O)[C@H]1O [Compound 8, 7-bromotubercidin]	120 ± 20	120	107	136	–	–	315	1530 ± 157	1530	4.85**	–	825 ± 17.3	858 nM and 798 nM	2.62***	clear aberrant morphology	106	364	309 nM and 273 nM	1390	1100 nM and 2070 nM and 1520 nM	EC50 at 3 day ([2]; MRC-5 EC50, Average): 12800 nM; EC50 at 3 day ([2]; MRC-5 EC50, single measurements): 8180 nM; EC50 ([3]; Trypanosoma brucei, read-out: Lister 427 EC50, mean and SEM, n = 3): 320 ± 270 nM; EC50 [5, 23]: 820 nM
